Legend:
MCF-7 cells = assay: MCF-7 cell proliferation inhibition; type: cell-based; details: 6 days incubation, CellTiter-Glo; read-out: IC50 for MCF-7 cell proliferation inhibition
Protocol: EMEM medium was purchased from Wisent, and fetal bovine serum was purchased from Biosera. Promega CellTiter-Glo reagent. MCF-7 cells were purchased from the Cell Bank of Type Culture Collection Committee of the Chinese Academy of Sciences. Nivo5 multi-marker analyzer (PerkinElmer).
MCF-7 cells were seeded in a white 384-well plate at 600 cells/[…] suspension/well. The plate was incubated in a CO2 incubator overnight.
On the day of treatment, a day 0 plate coated under the same conditions the day before was taken, centrifuged to remove the medium, added with 25 microliters of Promega CellTiter-Glo reagent to each well, and incubated at room temperature for 10 minutes to stabilize the luminescence signal. Measures were read by PerkinElmer Nivo multi-marker analyzer as an initial value for 0% inhibition.
The test compounds were serially 5-fold diluted to the 10th concentration with a multichannel pipette, i.e., from 2 millimoles to […], and the experiments were set up in duplicate. 47.5 microliters of medium was added to the intermediate plate, 2.5 microliters of serially diluted compounds were transferred to corresponding wells of the intermediate plate, and after mixing, 5 microliters of the mixture per well was transferred to the cell plate. The plate was incubated in a CO2 incubator for 6 days.
After 6 days of co-incubation with the compounds, the plate was centrifuged to remove the medium, added with 25 microliters of Promega CellTiter-Glo reagent to each well, and incubated at room temperature for 10 minutes to stabilize the luminescence signal. Measures were read by PerkinElmer Nivo multi-marker analyzer.
The original data was converted into inhibition rate by the formula: % inhibition=((RFUCmpd−AVER(RFUNeg.Ctrl))/((AVER(RFUDay0)−AVER(RFUNeg.Ctrl))×100%. Curve fitting was conducted and IC50 was calculated.

uterine growth = assay: Uterine wet weight inhibition in immature rats; type: in vivo, female immature rats; details: oral, three consecutive days
Protocol: This study was intended to evaluate the uterine growth inhibition of compounds of the present application in female immature rats aged 18-21 days (provided by Beijing Vital River Laboratory Animal Technology Co., Ltd., with the number of test animals in each experimental group being 5). In this study, 18-day-old female immature rats were given oral doses of 10 mg/kg of the compound of the present application and 0.1 mg/kg of estradiol for three consecutive days, the control group was given oral doses of 0.1 mg/kg of estradiol for three consecutive days, and the blank group was given no drugs except the corresponding vehicle. Three days after the administration, the rats were sacrificed, and the uteruses of the rats were weighed to observe the effect of the test compound on the uterine growth inhibition in rats. Inhibition rate=100*[(VehicleEE−Cpd)/(VehicleEE−Vehicle)], wherein VehicleEE is uterine wet weight in the control group (oral doses of 0.1 mg/kg estradiol); Cpd is the uterine wet weight of the treatment group; Vehicle is the uterine wet weight of rats in the blank group.

breast cancer = details: intramuscular injection, breast cancer patients; cited from earlier work
[1] = cited from earlier work

In the case of `CC/C(=C(/c1ccc(OCCNC/C=C/C(=O)N(C)C)nc1)c1[nH]c2ccccc2c1Cl)c1ccc(F)cc1Cl` [Compound 1], the IC50 (MCF-7 cells) is reported as 1.41 nM, the Inhibition rate (uterine growth; 10 mg/kg + estradiol 0.1 mg/kg) is reported as 75% and the Uterine wet weight (uterine growth; 10 mg/kg + estradiol 0.1 mg/kg) is reported as 0.0672 g.

For `C[C@]12CC[C@@H]3c4ccc(O)cc4CC[C@H]3[C@@H]1CC[C@@H]2O` [Estradiol, estradiol, reference compound], the Uterine wet weight (uterine growth; estradiol alone (control group)) was 0.1200 g.

For `C[C@]12CC[C@@H]3c4ccc(O)cc4C[C@@H](CCCCCCCCC[S+]([O-])CCCC(F)(F)C(F)(F)F)[C@H]3[C@@H]1CC[C@@H]2O` (stereo partly drawn) [fulvestrant], the clinical response rate (breast cancer) is listed as “about 50%” and the “bioavailability via oral administration” value [1] is listed as “zero”.

— patent US12221432B2, “Estrogen receptor antagonist” (CHIA TAI TIANQING PHARMACEUTICAL GROUP CO., LTD., priority 2018, dated 2025)
